As a reminder, the EC50 is the concentration that produces a half-maximal response. What is called AC50 is the concentration at which the activity in the assay is half-maximal.

Molecules are shown by their SMILES. Activity calls are given as the source filed them. Some results are limits rather than exact numbers.

The target in the first test is T1, Heat shock factor protein 1 (Mus musculus, UniProt P38532).
T1 sequence (P38532 whole entry): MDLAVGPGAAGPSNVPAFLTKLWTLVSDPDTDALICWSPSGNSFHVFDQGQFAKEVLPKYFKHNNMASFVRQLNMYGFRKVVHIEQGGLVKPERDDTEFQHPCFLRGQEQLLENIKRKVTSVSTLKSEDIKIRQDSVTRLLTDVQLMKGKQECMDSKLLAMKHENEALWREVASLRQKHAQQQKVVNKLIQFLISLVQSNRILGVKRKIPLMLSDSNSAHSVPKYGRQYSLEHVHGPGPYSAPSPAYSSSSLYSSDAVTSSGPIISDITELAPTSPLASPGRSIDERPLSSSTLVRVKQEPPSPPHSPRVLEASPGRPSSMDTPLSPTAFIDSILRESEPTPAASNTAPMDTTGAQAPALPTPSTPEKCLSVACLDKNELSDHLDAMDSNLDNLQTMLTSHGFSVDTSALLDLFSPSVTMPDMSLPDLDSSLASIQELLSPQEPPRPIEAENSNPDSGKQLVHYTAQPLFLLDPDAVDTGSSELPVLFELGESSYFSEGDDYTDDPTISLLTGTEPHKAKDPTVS
In words: decrease of HSF1-responsive luciferase luminescence – cell-based, NIH3T3, dose retest, confirmation (AID 2382).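 Note: NIH3T3 fibroblasts with HSF1-driven luciferase reporter stressed by proteasome inhibitor MG132; luminescence from HSF1-driven luciferase expression after 8 hours of MG132 stress.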
Details: not given
The class given is functional.
As to `CSc1cccc(NS(=O)(=O)c2cc(Br)cnc2N)c1`, the EC50 is recorded as > 195 µM (not active).

With `Cc1ccc(-c2nc(-c3cccnc3)sc2CC(=O)Nc2ccc3nc(C)sc3c2)cc1`, the EC50 was > 195 µM (not active).

`Cc1ccccc1C(=O)NC[C@@H]1CCCN2CCCC[C@H]12`: the EC50 is 18.6 µM (active).

As to `C=CCNc1cc(C)oc(=O)c1C(=O)CCC`, the EC50 is on record as > 195 µM (not active).

With `COC1CCCN(C(=O)c2ccc(OC3CCN(CCc4ccccc4)CC3)cc2)C1` (centres undefined), the EC50 is recorded as > 195 µM (not active).

Turning to `CCC(C)c1ccc(OCc2ccc(C(=O)O)o2)cc1` (centres undefined), the EC50 was 18.7 µM (inconclusive).

`CN(C(=O)CN1C(=O)S/C(=C\c2ccccc2)C1=O)C1CCS(=O)(=O)C1` (centres undefined): the half-maximal effective concentration (EC50) is given as > 195 µM (not active).

Regarding `Cc1cc(/C=C2\SC(=S)N(Cc3ccco3)C2=O)c(C)n1-c1ccccc1`, the EC50 is 1.57 µM (active).

Turning to `O=C(CSC(=S)N1CCCCC1)Nc1ncc2c(n1)CCCC2=O`, the EC50 is > 195 µM (not active).

As for `O=C1c2ccccc2C(Nc2ccc3c(c2)OCCO3)N1c1ccc(Cl)cn1` (centres undefined), the EC50 is given as > 195 µM (not active).

`NS(=O)(=O)c1cc2c(cc1Cl)NCNS2(=O)=O` [HYDROCHLOROTHIAZIDE]: the EC50 was > 195 µM (not active).

Another test has as its target T1, Heat shock factor protein 1. Put plainly: enhancement of HSF1-driven luciferase signal – cell-based, NIH3T3, luminescence, dose retest, confirmation (AID 435004).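 Note: stress induced by proteasome inhibitor MG132 added 30 min after compound; luciferase reporter driven by HSF1 response element in NIH3T3 cells; actives raise luminescence as potentiators of the MG132 stress response.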 It is filed as functional.
Details: not given
Turning to `CSc1sc(C(=O)OC(C)C)c2c1C(=O)CC(C)(C)C2`, the EC50 is > 260 µM (inactive).

On to `CC(=O)N1c2ccc(C)cc2C(c2ccccc2)CC1C` (centres undefined), for which the EC50 is > 260 µM (inactive).

As to `N#Cc1ccc(Cl)cc1NC(=O)CNCc1cccs1`, the EC50 was > 260 µM (inactive).

As for `CCCc1ccc(NC(=O)C2CCCN(c3cnccn3)C2)cc1` (centres undefined), the EC50 is > 260 µM (inactive).

For `Cc1ccc(C2=Nc3ccccc3NC(C)(c3ccc(C)o3)C2)o1` (centres undefined), the EC50 was > 260 µM (inactive).

Consider `CCOC(=O)C1=CN(Cc2ccc(OC)cc2)C=C(C(=O)OCC)C1c1cccs1`, for which the EC50 was > 260 µM (inactive).

As to `CC(C)(C)c1ccc(OCC(=O)NN2Cc3ccccc3C2=N)cc1`, the EC50 is > 260 µM (inactive).

Take `CCOc1ccc(C)cc1S(=O)(=O)NC1CCCCC1`: the EC50 is > 260 µM (inactive).

Consider `Cc1ccc(C)c(NC(=O)CS(=O)(=O)c2cn(C)c3ccccc23)c1`, for which the EC50 is > 260 µM (inactive).

Regarding `O=c1ccc2ccc(Oc3ccc([N+](=O)[O-])cc3[N+](=O)[O-])cc2o1`, the EC50 was 13.5 µM (active).

Turning to `Cc1ccc(NC(=S)N=Nc2c(O)n(C)c3ccc(S(=O)(=O)N4CCOCC4)cc23)cc1`, the EC50 is 6.25 µM (active).

On to `COc1cccc(CN2CC(C(=O)NCc3ccc(C)o3)CCC2=O)c1` (centres undefined), for which the EC50 was > 260 µM (inactive).

On to `Cc1cccc(CN2CCC(C(=O)Nc3cccc(-c4cscn4)c3)CC2)n1`, for which the EC50 was > 260 µM (inactive).

Regarding `COc1cccc(C(=O)Nc2ccc3c(C)cc(=O)oc3c2)c1`, the EC50 is > 260 µM (inactive).

`CC(=O)NCCn1ccc2ccccc21`: the EC50 is > 260 µM (inactive).

As to `CC1CCCN(C(=O)c2ccccc2OC2CCN(S(C)(=O)=O)CC2)C1` (centres undefined), the EC50 was > 260 µM (inactive).

Regarding `COc1cccc(-c2c(C(=O)N/N=C(\C)c3ccc(Cl)s3)nnn2-c2nonc2N)c1`, the EC50 was 51.8 µM (active).

Turning to `Cc1ccc(C)c(S(=O)(=O)c2c(N)n(/N=C/c3ccco3)c3nc4ccccc4nc23)c1`, the EC50 was > 260 µM (inactive).

Test system in another test: not listed separately
In words: Luminescence Cell-Based Dose Retest to Confirm Inhibitors of Cancer Stem Cells. [Related pubchem assays (depositor defined):AID2717, AID2721]. It is filed as functional. The following applies: Homo sapiens.
For `Cc1cc(/C=C2\SC(=S)N(Cc3ccco3)C2=O)c(C)n1-c1ccccc1`, the AC50 was 2.2 µM (active).

In another test the target is Cytochrome P450 2D6 (Homo sapiens, UniProt P10635).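 Note: CYP2D6 member of a cytochrome P450 panel assay.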
Cytochrome P450 2D6, sequence (P10635 whole entry): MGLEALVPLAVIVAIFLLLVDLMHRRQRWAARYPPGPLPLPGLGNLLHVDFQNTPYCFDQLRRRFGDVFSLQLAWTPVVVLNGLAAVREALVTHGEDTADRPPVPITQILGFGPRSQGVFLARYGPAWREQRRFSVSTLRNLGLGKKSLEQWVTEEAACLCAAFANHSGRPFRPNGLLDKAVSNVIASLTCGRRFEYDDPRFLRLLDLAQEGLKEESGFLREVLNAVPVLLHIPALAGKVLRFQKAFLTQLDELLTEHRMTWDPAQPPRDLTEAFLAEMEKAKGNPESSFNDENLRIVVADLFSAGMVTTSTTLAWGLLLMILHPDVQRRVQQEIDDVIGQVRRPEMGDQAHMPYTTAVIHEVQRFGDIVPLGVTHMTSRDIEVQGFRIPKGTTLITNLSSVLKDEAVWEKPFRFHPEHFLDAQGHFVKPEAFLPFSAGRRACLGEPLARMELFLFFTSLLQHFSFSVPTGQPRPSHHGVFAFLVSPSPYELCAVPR
Details: not given
For the molecule `CC(C)CN1CCC2(CC1)CCN(C(=O)c1cccn1C)CC2`, the AC50 was 12.6 µM (inconclusive).

`COC(=O)[C@@]1(Cc2ccccc2)[C@H]2c3cc(C(=O)N4CCCC4)n(Cc4cc(F)cc5c4OCOC5)c3C[C@H]2CN1C(=O)c1ccccc1`: the AC50 was 10 µM (inconclusive).

Regarding `CCNc1ncc2nc(-c3cc(F)cc(F)c3)c(=O)n(-c3ccc(OC)cc3)c2n1`, the AC50 was 0.158 µM (inconclusive).

Consider `COc1ccc(OCCn2c(C)c(/C=N/n3cnnc3)c3ccccc32)cc1`, for which the concentration at half-maximal activity (AC50) was 3.98 µM (inconclusive).

(Values after ChEMBL document CHEMBL1201862, “PubChem BioAssay data set” (2004).)
